Source: PMC12481613, “Boldine as a neuroprotective agent against motor neuron degeneration in models of amyotrophic lateral sclerosis” (Frontiers in Cellular Neuroscience, 2025)

Target: T1, connexin 43 (Cx43) hemichannel (Homo sapiens, UniProt P17302)
T1 construct: gene GJA1; human Cx43 tagged with GFP (hCx43-GFP)
Assay: TO-PRO-3 dye uptake in HeLa cells transfected with hCx43-GFP, Ca2+-free HBSS
Type: cell-based

T1 sequence (P17302 2-382): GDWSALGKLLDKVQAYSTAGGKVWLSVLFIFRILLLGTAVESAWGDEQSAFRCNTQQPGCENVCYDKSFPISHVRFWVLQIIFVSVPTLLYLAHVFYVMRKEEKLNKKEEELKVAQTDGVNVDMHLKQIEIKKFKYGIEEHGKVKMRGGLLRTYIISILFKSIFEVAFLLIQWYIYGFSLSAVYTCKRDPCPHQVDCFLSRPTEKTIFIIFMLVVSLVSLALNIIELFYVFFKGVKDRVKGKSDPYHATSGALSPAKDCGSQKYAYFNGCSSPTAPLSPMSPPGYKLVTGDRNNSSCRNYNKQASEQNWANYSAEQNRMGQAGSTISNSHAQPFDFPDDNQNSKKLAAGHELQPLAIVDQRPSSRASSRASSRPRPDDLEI

SMILES: COc1cc2c(cc1O)C[C@H]1c3c(cc(O)c(OC)c3-2)CCN1C [boldine]
- IC50: 12.5 µM
